The results in this text go back to US12421277B2, “Anti-aging salmon roe tripeptide and preparation method and application thereof” (Shenzhen Porshealth Bioengineering Co., Ltd., priority 2023, dated 2025).

Where a SMILES comes first, the peptide text is derived from it.

The term AUC denotes the area under the concentration-time curve, a measure of exposure.

The nature of the series: Blood absorption of YLP in rats, UPLC-MS/MS. The settings on record: rat, in vivo, po, SD rats, intragastric 100 mg/kg bw. The protocol: In this research, SD rats are used, and divided into three groups: a normal group and salmon YLP groups (with a daily dosage of 100 mg/kg bw). The rats are fasted but allowed to drink water 12 h before the experiment begins. At 15 min, 45 min, 90 min, 180 min and 360 min after intragastric administration, all the rats are anesthetized with the 3% pentobarbital sodium, and blood is collected from abdominal aortas, followed by euthanasia. […]
• (1) The required samples are taken out for thawing, and uniformly mixed by a vortex. • (2) 40 μL of a mixed sample is taken, and 120 μL of methanol is added for shaking treatment for 10 min, and a resultant is centrifuged at a low temperature for 10 min. • (3) 70 μL of a supernatant solution is taken from the centrifuged sample for subsequent measurement. 4.2.2.2 Preparation of Standard Solution
Chromatographic separation is performed by using a Waters ACQUITY UPLC I-CLASS ultra-high performance liquid chromatographic device. Specific conditions are as follows: chromatographic column Waters UPLC HSS T3 ([…], 2.1 mm×100 mm)—mobile phase: A phase (water, 0.1% formic acid), B phase (methanol)—flow rate: 0.3 mL/min—injection volume: 5.0 μL—column temperature: 40° C. —single sample analysis time: 8 min.
A Waters XEVO TQ-XS tandem quadrupole mass spectrometer is used for mass spectrometry detection. Specific conditions are as follows: positive ion source voltage: 3.0 kV—cone voltage: 30 V—desolvation temperature: 500° C. —desolvation gas flow rate: […]—cone gas flow rate: […].
Data is expressed in the form of Mean±SD. Graphpad is used for data processing and significance analysis. […] A target peak area in polypeptide metabolic data is calculated by using TargetLynx software, and an allowable error of a retention time is 15 s. Concentration calculation is based on a standard curve method to obtain quantitative results.

The compound `CC(C)C[C@H](NC(=O)[C@@H](N)Cc1ccc(O)cc1)C(=O)N1CCC[C@H]1C(=O)O` [YLP] (H-Tyr-Leu-Pro-OH; N-terminus and C-terminus assumed) had an AUC (15-360 min) of 6.19 ng·h/mL. For the same compound, the Cmax (at 90 min, read-out: maximum content of YLP in blood) is 1.31 ± 0.44 ng/mL. Besides, where the note is “read-out: time of maximum content in blood (converted)”, the Tmax was 1.5 h.
